Legend:
[1] = test system: RNA polymerase II phosphorylation at Ser2; test: immunoblotting of p-Ser2 RNA polymerase II in Ramos cells; assay type: cell-based, human; settings: 0.1 and 1 µM (R547 1 µM), 4-24 h
Experimental: Cells were seeded at a density of 2 × 10^6 cells, treated as specified and harvested by centrifugation at 3000 rpm for 5 min, followed by freezing in liquid nitrogen. The cell pellets were thawed on ice and quick-frozen and defrozen in liquid nitrogen for three times, then lysed on ice in lysis buffer (20 mM Tris-HCl, 150 mM NaCl, 1% v/v Triton X-100, 0.5 mM EDTA, 10 mM NaF, 2.5 mM Na4P2O7, protease inhibitor (Sigma, #P2714)) for 30 min, accompanied by vortexing. Subsequently, centrifugation 13,300 rpm for 15 min purified cell lysates from cell debris. The supernatant was transferred to a new tube and the protein concentration was determined by Bradford assay. The samples were diluted with sample buffer. SDS-Page and Western Blot were conducted in accordance with standard workflows. […] The antibody baths were stored at 4 °C and re-used.
The density of the individual protein band was determined using Image Studio^TM Lite Version 5.2. The density of each protein was divided by the average of all bands of this protein. The ratios of the protein of interest were normalized to the ratio of the respective loading control. To determine the fold change, each normalized ratio was divided by the normalized band of the control line (untreated cells). Fold change is 1 for the control line, n ≥ 2. The results are shown as mean ± standard deviation and were visualized with GraphPad Prism 7.

Jurkat = settings: read-out: IC50 (Jurkat); cytotoxicity, 24 h
Experimental: The resazurin reduction assay, which is also known as AlamarBlue® assay, was used for the determination of cell viability in all cytotoxicity determinations shown in the present work, as previously described [22]. Briefly, cells were seeded at a specific density depending on the incubation time (24 h: 1 × 10^6 cells/ml) in a 96-well plate and incubated with increasing compound concentrations (0.01–30 µM). After the specified treatment time, resazurin (Sigma, #R7017) was added to a final concentration of 40 µM. […] The viability of control cells was set to 100% and all other values were normalized to the control condition, the dose-response curves were then fitted with Prism v7.01 (GraphPad software, La Jolla, CA, USA). The reduction of resazurin to resorufin is proportional to aerobic respiration; therefore, it is used as a measure for the cell viability and cytotoxicity of a tested compound.

[2] = test system: DLBCL177 diffuse large B cell lymphoma cells; settings: read-out: IC50 (DLBCL177); primary patient cells, 24 h
From the text: For chronic lymphocytic leukemia, mononuclear cells were isolated from peripheral blood using a Ficoll gradient (GE Healthcare). Primary cells from other lymphoma entities were isolated as previously described [80]. All cells were cryopreserved after isolation and thawed as previously described [81].
The resazurin reduction assay, which is also known as AlamarBlue® assay, was used for the determination of cell viability in all cytotoxicity determinations shown in the present work, as previously described [22]. Briefly, cells were seeded at a specific density depending on the incubation time (24 h: 1 × 10^6 cells/ml) in a 96-well plate and incubated with increasing compound concentrations (0.01–30 µM). After the specified treatment time, resazurin (Sigma, #R7017) was added to a final concentration of 40 µM. […] The viability of control cells was set to 100% and all other values were normalized to the control condition, the dose-response curves were then fitted with Prism v7.01 (GraphPad software, La Jolla, CA, USA).

PHKG1 = target: T1, PHKG1 (Homo sapiens, UniProt Q16816); test: kinome screen (33PanQinase); assay type: biochemical
T1 construct: purchased Reaction Biology Europe GmbH (formerly ProQinase)
T1 sequence (Q16816 whole entry): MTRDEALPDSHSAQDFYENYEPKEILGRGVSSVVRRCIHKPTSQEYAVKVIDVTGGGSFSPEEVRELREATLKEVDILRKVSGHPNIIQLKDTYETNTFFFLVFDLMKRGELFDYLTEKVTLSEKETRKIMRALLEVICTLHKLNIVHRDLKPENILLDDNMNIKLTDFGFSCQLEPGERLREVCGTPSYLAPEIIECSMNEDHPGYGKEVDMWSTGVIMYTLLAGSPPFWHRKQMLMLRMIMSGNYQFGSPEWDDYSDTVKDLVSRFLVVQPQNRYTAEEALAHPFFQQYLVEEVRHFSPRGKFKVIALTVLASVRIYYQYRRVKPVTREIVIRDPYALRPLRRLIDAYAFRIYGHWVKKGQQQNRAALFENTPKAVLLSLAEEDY
Experimental: (§1) The Kinome Screening was performed by Reaction Biology Europe GmbH (http://reactionbiology.com; Freiburg i. Br., Germany).

FLT3 = target: T2, FLT3 (Homo sapiens, UniProt P36888); test: kinome screen (33PanQinase); assay type: biochemical
T2 construct: purchased Reaction Biology Europe GmbH (formerly ProQinase)
T2 sequence (P36888 27-993): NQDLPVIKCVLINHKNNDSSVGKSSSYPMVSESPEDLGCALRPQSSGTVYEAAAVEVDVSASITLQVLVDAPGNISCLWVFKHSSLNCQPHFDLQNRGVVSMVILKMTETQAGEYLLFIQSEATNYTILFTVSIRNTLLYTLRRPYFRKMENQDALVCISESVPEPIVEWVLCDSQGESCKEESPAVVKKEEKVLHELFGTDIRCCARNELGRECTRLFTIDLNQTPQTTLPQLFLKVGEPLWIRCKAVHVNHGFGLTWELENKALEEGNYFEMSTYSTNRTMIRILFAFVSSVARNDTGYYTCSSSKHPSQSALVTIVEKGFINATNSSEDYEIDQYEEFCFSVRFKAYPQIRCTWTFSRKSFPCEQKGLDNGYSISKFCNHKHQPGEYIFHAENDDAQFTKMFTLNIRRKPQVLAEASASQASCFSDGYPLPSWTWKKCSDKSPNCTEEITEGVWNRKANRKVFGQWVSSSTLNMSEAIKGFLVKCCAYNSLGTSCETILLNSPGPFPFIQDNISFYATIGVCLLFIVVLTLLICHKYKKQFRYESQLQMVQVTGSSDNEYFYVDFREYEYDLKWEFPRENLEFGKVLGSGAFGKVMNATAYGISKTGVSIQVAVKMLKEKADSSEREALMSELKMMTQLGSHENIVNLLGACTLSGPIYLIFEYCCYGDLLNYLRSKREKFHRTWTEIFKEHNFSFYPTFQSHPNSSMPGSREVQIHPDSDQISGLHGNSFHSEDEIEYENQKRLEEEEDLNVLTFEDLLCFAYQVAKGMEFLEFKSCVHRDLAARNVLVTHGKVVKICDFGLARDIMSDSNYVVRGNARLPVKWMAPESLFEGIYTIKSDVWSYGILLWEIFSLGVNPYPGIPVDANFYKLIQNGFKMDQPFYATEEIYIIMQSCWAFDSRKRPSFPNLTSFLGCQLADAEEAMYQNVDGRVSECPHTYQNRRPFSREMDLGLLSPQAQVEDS
Experimental: as §1

KIT = target: T3, KIT (Homo sapiens, UniProt P10721); test: kinome screen (33PanQinase); assay type: biochemical
T3 construct: purchased Reaction Biology Europe GmbH (formerly ProQinase)
T3 sequence (P10721 26-976): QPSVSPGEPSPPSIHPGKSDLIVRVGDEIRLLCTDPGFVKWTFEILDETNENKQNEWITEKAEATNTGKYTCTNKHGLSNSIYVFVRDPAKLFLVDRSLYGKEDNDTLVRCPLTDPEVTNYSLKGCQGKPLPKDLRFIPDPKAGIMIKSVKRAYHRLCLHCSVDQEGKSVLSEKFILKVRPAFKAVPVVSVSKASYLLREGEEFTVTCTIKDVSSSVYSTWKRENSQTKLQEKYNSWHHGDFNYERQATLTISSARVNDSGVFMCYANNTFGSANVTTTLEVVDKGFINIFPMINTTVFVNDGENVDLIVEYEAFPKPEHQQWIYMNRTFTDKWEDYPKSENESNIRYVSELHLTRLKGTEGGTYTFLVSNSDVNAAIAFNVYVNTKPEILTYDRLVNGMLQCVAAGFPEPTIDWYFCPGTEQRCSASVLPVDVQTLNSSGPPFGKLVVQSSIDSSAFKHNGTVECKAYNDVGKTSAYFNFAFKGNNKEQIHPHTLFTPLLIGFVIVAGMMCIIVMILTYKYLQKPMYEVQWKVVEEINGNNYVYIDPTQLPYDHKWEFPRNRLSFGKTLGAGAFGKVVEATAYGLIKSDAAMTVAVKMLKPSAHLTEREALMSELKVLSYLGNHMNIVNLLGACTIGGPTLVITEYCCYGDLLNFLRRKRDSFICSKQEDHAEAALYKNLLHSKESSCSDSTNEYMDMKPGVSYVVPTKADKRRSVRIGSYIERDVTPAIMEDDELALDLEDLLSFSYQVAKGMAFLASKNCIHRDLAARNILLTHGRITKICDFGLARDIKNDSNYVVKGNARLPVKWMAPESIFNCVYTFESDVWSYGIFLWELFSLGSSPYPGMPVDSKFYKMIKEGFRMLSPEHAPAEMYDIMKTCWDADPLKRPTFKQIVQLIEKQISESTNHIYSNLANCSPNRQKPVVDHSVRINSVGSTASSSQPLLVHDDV
Experimental: as §1

Ramos cells = test: BrdU cell proliferation assay; assay type: cell-based, human; settings: 24 h, non-lethal doses
Experimental: The Bromodeoxyuridine (BrdU) Cell Proliferation kit from Millipore (#QIA58-1000TEST) was used to measure proliferation of cells. The manufacturer protocol has been optimized as described in the following. 1 × 10^4 cells per well were seeded in a 96-well plate. The cells were pre-incubated with the compounds of interest for 1 h. Following this, the BrdU solution was added and the cells were incubated for a total of 24 h. BrdU is an analog of the nucleoside thymidine and is incorporated into the DNA of dividing cells during replication. Culture medium was removed and cells were fixed and denatured with Fixative/Denaturing solution for 30 min at room temperature. Since suspension cells were used, they had to be centrifuged at 1200 rpm for 5 min after each following step. After, the anti-BrdU-antibody was incubated for 1 h at RT. Cells were washed three times with washing buffer. The secondary antibody, which is coupled to HRP (horseradish peroxidase) was incubated for 30 min at RT. Again, cells were washed three times with washing buffer.
Then, the substrate solution was added, that contained TMB (3,3’,5,5’-Tetramethylbenzidine), which is oxidized by HRP. Oxidation of TMB causes a color change from colorless to blue. The intensity of color change is correlated with the number of bound peroxidases, which depends on the quantity of primary antibodies and therefore on the content of the incorporated BrdU. If the cells are not proliferating, no BrdU is incorporated, resulting in a weak signal.
After 15 min incubation time the stopping reagent was added, causing a pH change and resulting in a color change from blue to yellow. The colored reaction product was quantified at 450 nm using a spectrophotometer. For all measurements, three technical replicates were made. The control was set to 100% proliferation, and the treated cells were normalized to the control. The results were visualized using GraphPad Prism 7.

SMILES	phosphorylation of RNA polymerase II at Ser2 [1]	IC50 (Jurkat) [nM]	IC50 [2] [nM]	residual kinase activity (PHKG1; 0.3 µM)	residual kinase activity (PHKG1; 3 µM)	residual kinase activity (FLT3; 0.3 µM)	residual kinase activity (FLT3; 3 µM)	residual kinase activity (KIT; 0.3 µM)	residual kinase activity (KIT; 3 µM)	proliferation (BrdU incorporation) (Ramos cells)	residual kinase activity (PHKG1; 0.03 µM)	residual kinase activity (FLT3; 0.03 µM)	residual kinase activity (KIT; 0.03 µM)
c1ccc(CNc2cc(-c3c[nH]c4ncccc34)ccn2)cc1 [meriolin 36]	less pronounced	1430	50	16 % of control	2 % of control	9 % of control	2 % of control	89 % of control	46 % of control	substantial decrease in proliferation			
COc1ccnc2[nH]cc(-c3cc(N)nc(N)c3)c12 [meriolin 16]	total loss of the phosphorylation at Ser2 within 4 h	30	80	39 % of control		21 % of control		96 % of control		substantial decrease in proliferation	85 % of control	49 % of control	70 % of control

Source: article PMC11167047 (Cell Death Discovery, 2024)
